This note sets out measurements from US8729089B2 (Gilead Sciences, Inc., priority 2006, dated 2014).

As a reminder, the EC50 is the midpoint of the concentration-response curve. For orientation: CC50 means the concentration giving 50% cytotoxicity.

Data set [1] has as its system HCV replicon in human hepatoma Huh-7 cell line. The experiment in a line: Anti-HCV replicon assay (EC50, luciferase). Format: cell-based. The following applies: Hepatitis C virus, Huh-7, 72 h. Summed up: (§1)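 Cytotoxicity (CC50) measured by CellTiter-Glo and antiviral activity (EC50) by luciferase signal from lysed cells, both by luminescence. Replicon-bearing Huh-7 cells, 6000 per well, incubated 3 days at 37 °C with threefold-diluted compound (0.5% DMSO for DMSO-dissolved compounds).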
(In antiviral work, replicon cells carry a viral genome segment that copies itself.)

A short description of data set [2]: CC50 assay (CellTiter-Glo) in Huh-7 HCV replicon cells. It counts as cell-based, human. Particulars: human, 3 days incubation, CellTiter-Glo readout. In a few lines:
as §1
A general note: Cellular ATP, detected with luciferase, serves as a proxy for viable cell number.

The compound `CC(C)N1CCN(S(=O)(=O)c2cc(-c3ccc4nc(NCc5ccc(S(N)(=O)=O)cc5)nc(NCC(F)(F)F)c4n3)ccc2F)CC1` [Example 204, 4-{[6-[4-Fluoro-3-(4-isopropyl-piperazine-1-sulfonyl)-phenyl]-4-(2,2,2-trifluoro-ethylamino)-pyrido[3,2-d]pyrimidin-2-ylamino]-methyl}-benzenesulfonamide] came in with an EC50 in data set [1] of less than 0.1 µM. Also, the CC50 at 3 days in data set [2] was less than 5 µM.

In data set [1], `CC(C)(C)OC(=O)N1CC[C@@H](NS(=O)(=O)c2cc(-c3ccc4nc(NCc5ccc(S(N)(=O)=O)cc5)nc(NCC(F)(F)F)c4n3)ccc2F)C1` [Example 205, 3-{2-Fluoro-5-[2-(4-sulfamoyl-benzylamino)-4-(2,2,2-trifluoro-ethylamino)-pyrido[3,2-d]pyrimidin-6-yl]-benzenesulfonylamino}-pyrrolidine-1-carboxylic acid tert-butyl ester] registered a concentration for a half-maximal effect (EC50) of less than 0.1 µM. Moreover, the CC50 at 3 days in data set [2] was less than 5 µM.

As for `CN(CC(F)(F)F)c1nc(NCc2ccc(S(N)(=O)=O)cc2)nc2ccc(-c3ccc(F)cc3)nc12` [Example 206, 4-({6-(4-Fluoro-phenyl)-4-[methyl-(2,2,2-trifluoro-ethyl)-amino]-pyrido[3,2-d]pyrimidin-2-ylamino}-methyl)-benzenesulfonamide], in data set [1], the half-maximal effective concentration (EC50) was less than 0.1 µM. The compound further returned a CC50 at 3 days in data set [2] of less than 5 µM.

For `C[C@H](N)C(=O)Nc1ccc(-c2ccc3nc(NCc4ccc(S(N)(=O)=O)cc4)nc(NCC(F)(F)F)c3n2)cc1Cl` [Example 207, 2-Amino-N-{2-chloro-4-[2-(4-sulfamoyl-benzylamino)-4-(2,2,2-trifluoro-ethylamino)-pyrido[3,2-d]pyrimidin-6-yl]-phenyl}-propionamide], the EC50 in data set [1] is less than 0.1 µM. Moreover, the 50% cytotoxic concentration (CC50) at 3 days in data set [2] was less than 5 µM.

In data set [1], `C[C@H](O)C(=O)Nc1ccc(-c2ccc3nc(NCc4ccc(S(N)(=O)=O)cc4)nc(NCC(F)(F)F)c3n2)cc1Cl` [Example 208, N-{2-Chloro-4-[2-(4-sulfamoyl-benzylamino)-4-(2,2,2-trifluoro-ethylamino)-pyrido[3,2-d]pyrimidin-6-yl]-phenyl}-2-hydroxy-propionamide] registered a 50% effective concentration (EC50) of less than 0.1 µM. Moreover, the CC50 at 3 days in data set [2] lay in the range of 5 to 25 µM.

In data set [1], `C[C@H](O)C(=O)Nc1ccc(-c2ccc3nc(NCc4ccc(S(N)(=O)=O)cc4)nc(NCC(F)(F)F)c3n2)cc1F` [Example 209, N-{2-Fluoro-4-[2-(4-sulfamoyl-benzylamino)-4-(2,2,2-trifluoro-ethylamino)-pyrido[3,2-d]pyrimidin-6-yl]-phenyl}-2-hydroxy-propionamide] came in with a 50% effective concentration (EC50) of less than 0.1 µM. In addition, the half-maximal cytotoxic concentration (CC50) at 3 days in data set [2] was less than 5 µM.

In the case of `C[C@H](O)C(=O)Nc1ccc(-c2ccc3nc(NCc4ccc(S(N)(=O)=O)cc4)nc(NCC(F)(F)F)c3n2)cc1` [Example 210, 2-Hydroxy-N-{4-[2-(4-sulfamoyl-benzylamino)-4-(2,2,2-trifluoro-ethylamino)-pyrido[3,2-d]pyrimidin-6-yl]-phenyl}-propionamide], the EC50 in data set [1] is less than 0.1 µM. The compound also registered a CC50 at 3 days in data set [2] greater than 25 µM.

The compound `COC(=O)Nc1ccc(-c2ccc3nc(NCc4ccc(S(N)(=O)=O)cc4)nc(NCC(F)(F)F)c3n2)cc1` [Example 211, {4-[2-(4-Sulfamoyl-benzylamino)-4-(2,2,2-trifluoro-ethylamino)-pyrido[3,2-d]pyrimidin-6-yl]-phenyl}-carbamic acid methyl ester] had an EC50 in data set [1] of less than 0.1 µM. This compound also gave a CC50 at 3 days in data set [2] of 5 to 25 µM.

In turn, `N#Cc1ccc(-c2ccc3nc(NCc4ccc(S(N)(=O)=O)cc4)nc(NCC(F)(F)F)c3n2)cc1` [Example 212, 4-{[6-(4-Cyano-phenyl)-4-(2,2,2-trifluoro-ethylamino)-pyrido[3,2-d]pyrimidin-2-ylamino]-methyl}-benzenesulfonamide] displayed an EC50 in data set [1] of less than 0.1 µM. In data set [2], this compound came in with a half-maximal cytotoxic concentration (CC50) at 3 days of 5 to 25 µM.
